Experimental data taken from ChEMBL document CHEMBL5625224, “Identification of [1,2,4]Triazolo[4,3-a]pyrazine PARP1 inhibitors with overcome acquired resistance activities” (Eur J Med Chem, 2023).

Key:
[1] = test system: MDA-MB-436; test: Antiproliferative activity against human MDA-MB-436 BRCA1-/- cells assessed as inhibition of cell growth incubated for 7 days by CCK-8 assay; format: functional, cell-based; details: MDA-MB-436, 168 h
[2] = test system: CAPAN-1; test: Antiproliferative activity against human CAPAN-1 BRCA2-/- cells assessed as inhibition of cell growth incubated for 7 days by CCK-8 assay; format: functional, cell-based; details: CAPAN-1, 168 h
[3] = molecular target: T1, Poly [ADP-ribose] polymerase 1 (Homo sapiens, UniProt P09874); test: Inhibition of PARP1 (unknown origin) incubated for 1 hr by ELISA analysis
T1 sequence (P09874 whole entry): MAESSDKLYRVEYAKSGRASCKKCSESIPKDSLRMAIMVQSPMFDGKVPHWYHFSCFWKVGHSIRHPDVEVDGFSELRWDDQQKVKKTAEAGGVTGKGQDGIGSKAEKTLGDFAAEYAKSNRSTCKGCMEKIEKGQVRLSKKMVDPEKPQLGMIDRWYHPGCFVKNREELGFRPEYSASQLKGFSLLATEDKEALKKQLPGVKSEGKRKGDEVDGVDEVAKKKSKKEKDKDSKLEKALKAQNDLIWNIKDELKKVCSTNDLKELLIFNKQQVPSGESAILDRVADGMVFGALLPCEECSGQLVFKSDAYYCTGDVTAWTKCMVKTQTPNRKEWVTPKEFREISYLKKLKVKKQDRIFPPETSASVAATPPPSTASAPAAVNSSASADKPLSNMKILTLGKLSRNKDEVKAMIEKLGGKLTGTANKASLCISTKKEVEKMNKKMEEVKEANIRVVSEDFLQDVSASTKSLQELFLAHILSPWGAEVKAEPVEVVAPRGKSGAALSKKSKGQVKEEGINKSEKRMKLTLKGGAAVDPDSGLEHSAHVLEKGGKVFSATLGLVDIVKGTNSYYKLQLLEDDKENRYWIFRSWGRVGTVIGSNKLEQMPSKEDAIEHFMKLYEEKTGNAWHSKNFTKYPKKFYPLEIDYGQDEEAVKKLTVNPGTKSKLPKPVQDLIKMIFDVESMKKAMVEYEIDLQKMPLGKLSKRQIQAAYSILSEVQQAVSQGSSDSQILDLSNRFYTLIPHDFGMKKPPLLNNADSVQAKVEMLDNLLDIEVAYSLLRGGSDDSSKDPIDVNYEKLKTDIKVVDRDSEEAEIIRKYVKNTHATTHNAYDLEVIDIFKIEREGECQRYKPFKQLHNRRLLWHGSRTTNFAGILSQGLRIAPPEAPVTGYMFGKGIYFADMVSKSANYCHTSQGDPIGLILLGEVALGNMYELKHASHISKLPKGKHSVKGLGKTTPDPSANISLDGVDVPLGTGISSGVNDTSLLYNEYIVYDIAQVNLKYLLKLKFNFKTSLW

[4] = Cytotoxicity against Chinese hamster V-C8 BRCA2-/- cells assessed as reduction in cell viability; format: toxicity, cell-based, Cricetulus griseus
[5] = Antiproliferative activity against human Talazoparib-resistant CAPAN-1 cells assessed as inhibition of cell growth incubated for 7 days by CCK-8 assay; format: functional, cell-based; details: CAPAN-1, 168 h
[6] = test system: Olaparib-resistant CAPAN-1; test: Induction of apoptosis in human Olaparib-resistant CAPAN-1 cells assessed as late apoptotic cells at 1 uM incubated for 48 hrs by Annexin-V/PI staining based flow cytometry analysis (reference value: 3.67%); format: functional
[7] = Antiproliferative activity against human Simmiparib-resistant CAPAN-1 cells assessed as inhibition of cell growth incubated for 7 days by CCK-8 assay; format: functional, cell-based; details: CAPAN-1, 168 h
[8] = test system: CAPAN-1; test: Induction of apoptosis in human CAPAN-1 cells assessed as early apoptotic cells at 1 uM incubated for 48 hrs by Annexin-V/PI staining based flow cytometry analysis (reference value: 10.1%); format: functional
[9] = test system: Olaparib-resistant CAPAN-1; test: Antiproliferative activity against human Olaparib-resistant CAPAN-1 cells assessed as inhibition of cell growth incubated for 7 days by CCK-8 assay; format: functional, cell-based; details: Olaparib-resistant CAPAN-1, 168 h
[10] = test system: CAPAN-1; test: Induction of apoptosis in human CAPAN-1 cells assessed as late apoptotic cells at 1 uM incubated for 48 hrs by Annexin-V/PI staining based flow cytometry analysis (reference value: 4.95%); format: functional
[11] = test system: Olaparib-resistant CAPAN-1; test: Induction of apoptosis in human Olaparib-resistant CAPAN-1 cells assessed as early apoptotic cells at 1 uM incubated for 48 hrs by Annexin-V/PI staining based flow cytometry analysis (reference value: 8.50%); format: functional
[12] = Selectivity ratio of IC50 for antiproliferative activity against human Talazoparib-resistant CAPAN-1 cells to IC50 for antiproliferative activity against human CAPAN-1 BRCA2-/- cells; format: functional
[13] = Selectivity ratio of IC50 for antiproliferative activity against human Olaparib-resistant CAPAN-1 cells to IC50 for antiproliferative activity against human CAPAN-1 BRCA2-/- cells; format: functional
[14] = Selectivity ratio of IC50 for antiproliferative activity against human Simmiparib-resistant CAPAN-1 cells to IC50 for antiproliferative activity against human CAPAN-1 BRCA2-/- cells; format: functional
[15] = molecular target: Voltage-gated inwardly rectifying potassium channel KCNH2 (Homo sapiens, UniProt Q12809); test: Inhibition of hERG; format: toxicity
Chain of Voltage-gated inwardly rectifying potassium channel KCNH2 (Q12809 whole entry): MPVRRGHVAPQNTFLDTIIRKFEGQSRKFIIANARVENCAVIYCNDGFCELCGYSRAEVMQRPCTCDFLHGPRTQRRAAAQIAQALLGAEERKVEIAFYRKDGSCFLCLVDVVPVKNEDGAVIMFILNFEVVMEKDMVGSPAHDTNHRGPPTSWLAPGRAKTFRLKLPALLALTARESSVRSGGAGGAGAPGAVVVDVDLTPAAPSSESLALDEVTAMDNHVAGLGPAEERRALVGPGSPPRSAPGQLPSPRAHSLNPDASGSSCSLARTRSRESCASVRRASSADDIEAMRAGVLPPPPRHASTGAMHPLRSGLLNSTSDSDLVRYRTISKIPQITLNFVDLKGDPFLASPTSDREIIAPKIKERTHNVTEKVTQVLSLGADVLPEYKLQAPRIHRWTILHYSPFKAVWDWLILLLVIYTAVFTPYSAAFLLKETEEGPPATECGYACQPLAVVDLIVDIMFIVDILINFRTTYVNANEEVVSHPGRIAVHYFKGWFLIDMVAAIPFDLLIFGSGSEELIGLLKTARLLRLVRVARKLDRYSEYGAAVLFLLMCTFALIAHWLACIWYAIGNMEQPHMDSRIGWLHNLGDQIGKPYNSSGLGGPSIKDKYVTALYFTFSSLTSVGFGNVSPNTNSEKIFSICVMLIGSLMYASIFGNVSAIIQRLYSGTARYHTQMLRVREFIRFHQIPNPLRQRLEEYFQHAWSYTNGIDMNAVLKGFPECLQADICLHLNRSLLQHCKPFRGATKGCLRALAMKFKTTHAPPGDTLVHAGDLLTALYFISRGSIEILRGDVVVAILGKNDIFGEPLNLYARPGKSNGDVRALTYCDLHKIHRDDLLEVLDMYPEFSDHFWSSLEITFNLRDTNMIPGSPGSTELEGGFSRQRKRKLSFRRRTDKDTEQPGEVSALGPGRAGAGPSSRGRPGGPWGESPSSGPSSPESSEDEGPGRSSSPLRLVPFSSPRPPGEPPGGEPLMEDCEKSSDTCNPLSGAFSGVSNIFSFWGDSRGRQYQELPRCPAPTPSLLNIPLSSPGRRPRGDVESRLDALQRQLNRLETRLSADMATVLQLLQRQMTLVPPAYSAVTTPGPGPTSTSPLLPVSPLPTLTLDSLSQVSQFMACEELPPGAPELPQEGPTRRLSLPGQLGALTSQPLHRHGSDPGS

[16] = molecular target: T1, Poly [ADP-ribose] polymerase 1; test: Inhibition of PARP1 (unknown origin)

CC1CN(C(=O)c2cc(Cc3n[nH]c(=O)c4ccccc34)ccc2F)Cc2nnc(C3CC3)n21 (stereo unspecified)
IC50 [1]: 0.0075 µM
IC50 [2]: 0.0607 µM
IC50 [3]: 0.0032 µM

CC1CN(C(=O)c2cc(Cc3n[nH]c(=O)c4ccccc34)ccc2F)Cc2nnc(-c3cnn(C)c3)n21 (stereo unspecified)
IC50 [1]: 0.0211 µM
IC50 [2]: 0.218 µM
IC50 [3]: 0.0028 µM

CC1CN(C(=O)c2cc(Cc3n[nH]c(=O)c4ccccc34)ccc2F)Cc2nnc(-c3cnccn3)n21 (stereo unspecified)
IC50 [1]: < 0.0003 µM
IC50 [2]: 0.0073 µM
IC50 [3]: 0.004 µM

Cc1cc(Cc2ccc(F)c(C(=O)N3Cc4nnc(-c5ccccn5)n4C(C)C3)c2)n[nH]c1=O (stereo unspecified)
IC50 [3]: > 1 µM

O=C1NCC2c3c(cccc31)CCN2C(=O)c1cc(Cc2n[nH]c(=O)c3ccccc23)ccc1F (stereo unspecified)
CC50 [4]: 0.096 µM

CC1CN(C(=O)c2cc(Cn3c(=O)[nH]c(=O)c4ccccc43)ccc2F)Cc2nnc(-c3ccccn3)n21 (stereo unspecified)
IC50 [3]: 0.0046 µM

CC1Cn2nncc2CN1C(=O)c1cc(Cc2n[nH]c(=O)c3ccccc23)ccc1F (stereo unspecified)
IC50 [3]: > 1 µM

O=C(c1cc(Cc2n[nH]c(=O)c3ccccc23)ccc1F)N1CCN(C(=O)C2CC2)CC1 [OLAPARIB]
IC50 [1]: 0.0432 µM
IC50 [5]: 11.5 µM
Activity [6]: 4.02%
IC50 [7]: 27.6 µM
Activity [8]: 16.2%
IC50 [9]: 0.04 µM
Activity [10]: 4.5%
Activity [11]: 11.5%

COc1ccc2c(c1)C(C)N(C(=O)c1cc(Cc3n[nH]c(=O)c4ccccc34)ccc1F)CC2 (stereo unspecified)
IC50 [3]: 0.108 µM

CC1CN(C(=O)c2cc(Cc3n[nH]c(=O)c4ccccc34)ccc2F)Cc2nnc(CF)n21 (stereo unspecified)
IC50 [3]: 0.0119 µM

CC1CN(C(=O)c2cc(Cc3n[nH]c(=O)c4ccccc34)ccc2F)Cc2nnc(-c3ccccn3)n21 (stereo unspecified)
Ratio IC50 [12]: 55
IC50 [1]: < 0.0003 µM
IC50 [2]: 0.001 µM
IC50 [5]: 0.097 µM
Ratio IC50 [13]: 165
Ratio IC50 [14]: 247
IC50 [7]: 0.437 µM
IC50 [3]: 0.002 µM
IC50 [9]: 0.292 µM
IC50 [15]: 17.4 µM

CC1CN(C(=O)c2cc(Cc3n[nH]c(=O)c4ccccc34)ccc2F)Cc2nnc(CCl)n21 (stereo unspecified)
IC50 [1]: 0.0027 µM
IC50 [3]: < 0.0003 µM

CC1CN(C(=O)c2cc(COc3ccccc3C(N)=O)ccc2F)Cc2nnc(-c3ccccn3)n21 (stereo unspecified)
IC50 [3]: 0.23 µM

CC1CN(C(=O)c2cc(Cc3n[nH]c(=O)c4ccccc34)ccc2F)Cc2nnc(-c3cccs3)n21 (stereo unspecified)
Ratio IC50 [12]: 112
IC50 [1]: 0.0011 µM
IC50 [5]: 0.73 µM
Ratio IC50 [13]: 717
Ratio IC50 [14]: 507
IC50 [7]: 3.29 µM
IC50 [3]: 0.0007 µM
IC50 [9]: 4.66 µM
IC50 [15]: 4.1 µM

CC1CN(C(=O)c2cc(Cc3n[nH]c(=O)c4ccccc34)ccc2F)Cc2nnc(C(F)(F)C(F)(F)F)n21 (stereo unspecified)
Ratio IC50 [12]: 91
IC50 [1]: 0.0019 µM
IC50 [2]: 0.0025 µM
IC50 [5]: 0.272 µM
Ratio IC50 [13]: 590
Ratio IC50 [14]: 509
IC50 [7]: 1.53 µM
IC50 [3]: 0.0041 µM
IC50 [9]: 1.77 µM
IC50 [15]: 40 µM

CC1(C)CN(C(=O)c2cc(Cc3n[nH]c(=O)c4ccccc34)ccc2F)Cc2cnnn21
IC50 [3]: > 1 µM

CC1CN(C(=O)c2cc(Cc3n[nH]c(=O)c4ccccc34)ccc2F)Cc2nnc(CO[Si](C)(C)C(C)(C)C)n21 (stereo unspecified)
IC50 [2]: 0.0547 µM

CC1CN(C(=O)c2cc(Cc3ccc(=O)[nH]n3)ccc2F)Cc2nnc(-c3ccccn3)n21 (stereo unspecified)
IC50 [3]: 0.947 µM

CC1CN(C(=O)c2cc(Cc3n[nH]c(=O)c4ccccc34)ccc2F)Cc2nncn21 (stereo unspecified)
IC50 [3]: 0.0094 µM

CC1CN(C(=O)c2cc(Cc3n[nH]c(=O)c4ccccc34)ccc2F)Cc2nnc(C(F)(F)Cl)n21 (stereo unspecified)
IC50 [1]: 0.0003 µM
IC50 [2]: 0.0034 µM
IC50 [3]: 0.0034 µM

O=C1CC2c3c(cccc31)CCN2C(=O)c1cc(Cc2n[nH]c(=O)c3ccccc23)ccc1F (stereo unspecified)
IC50 [16]: 0.00346 µM
CC50 [4]: 0.00453 µM

CC1c2cc(F)ccc2CCN1C(=O)c1cc(Cc2n[nH]c(=O)c3ccccc23)ccc1F (stereo unspecified)
IC50 [3]: 0.0707 µM

CC1(C)Cn2nncc2CN1C(=O)c1cc(Cc2n[nH]c(=O)c3ccccc23)ccc1F
IC50 [3]: > 1 µM

CC1CN(C(=O)c2cc(Cc3n[nH]c(=O)c4ccccc34)ccc2F)Cc2nnc(C3COC(C)(C)O3)n21 (stereo unspecified)
IC50 [3]: 0.025 µM

CC1CN(C(=O)c2cc(Cc3n[nH]c(=O)c4ccccc34)ccc2F)Cc2nnc(-c3ccco3)n21 (stereo unspecified)
IC50 [1]: < 0.0003 µM
IC50 [3]: 0.0017 µM

CC1CN(C(=O)c2cc(Cc3n[nH]c(=O)c4ccccc34)ccc2F)Cc2nnc(-c3c[nH]cn3)n21 (stereo unspecified)
IC50 [3]: 0.0131 µM

CC1CN(C(=O)c2cc(Cc3n[nH]c(=O)c4ccccc34)ccc2F)Cc2cnnn21 (stereo unspecified)
IC50 [3]: > 1 µM

CC1CN(C(=O)c2cc(Cc3n[nH]c(=O)c4ccccc34)ccc2F)Cc2nnc(C(F)(F)F)n21 (stereo unspecified)
IC50 [1]: 0.0013 µM
IC50 [5]: 0.02 µM
IC50 [7]: 0.02 µM
IC50 [9]: 0.02 µM
CC50 [4]: 0.042 µM

O=C(c1cc(Cc2n[nH]c(=O)c3ccccc23)ccc1F)N1CCc2ccccc2C1C1CC1 (stereo unspecified)
IC50 [3]: 0.182 µM

CC1CN(C(=O)c2cc(Cc3n[nH]c(=O)c4ccccc34)ccc2F)Cc2nnc(-c3cncs3)n21 (stereo unspecified)
IC50 [2]: 0.0216 µM
IC50 [3]: 0.0058 µM

CC1CN(C(=O)c2cc(Cc3n[nH]c(=O)c4ccccc34)ccc2F)Cc2nnc(-c3ncc[nH]3)n21 (stereo unspecified)
IC50 [1]: 0.0019 µM
IC50 [2]: 0.0137 µM
IC50 [3]: 0.0032 µM

CC1CN(C(=O)c2cc(Cc3n[nH]c(=O)c4ccccc34)ccc2F)Cc2nnc(C(O)CO)n21 (stereo unspecified)
IC50 [3]: 0.021 µM

CC1CN(C(=O)c2cc(Cc3n[nH]c(=O)c4ccccc34)ccc2F)Cc2nnc(-c3ccsc3)n21 (stereo unspecified)
IC50 [2]: 0.0073 µM
IC50 [3]: 0.002 µM

CC1CN(C(=O)c2cc(Cc3n[nH]c(=O)c4ccccc34)ccc2F)Cc2nnc(CO)n21 (stereo unspecified)
IC50 [3]: 0.0092 µM

Cn1ncnc1[C@H]1c2n[nH]c(=O)c3cc(F)cc(c23)N[C@@H]1c1ccc(F)cc1 [TALAZOPARIB]
Ratio IC50 [12]: 666
IC50 [5]: 0.182 µM
Ratio IC50 [13]: 1344
Ratio IC50 [14]: 1749
IC50 [7]: 0.478 µM
IC50 [9]: 0.367 µM

CC1CN(C(=O)c2cc(Cc3n[nH]c(=O)c4ccccc34)ccc2F)Cc2nnc(-c3nccn3C)n21 (stereo unspecified)
IC50 [3]: 0.0077 µM

CC1c2ccccc2CCN1C(=O)c1cc(Cc2n[nH]c(=O)c3ccccc23)ccc1F (stereo unspecified)
IC50 [3]: 0.0428 µM

CC1CN(C(=O)c2cc(Cc3n[nH]c(=O)c4ccccc34)ccc2F)Cc2nnc(C(F)F)n21 (stereo unspecified)
IC50 [1]: 0.0029 µM
IC50 [2]: 0.0295 µM
IC50 [3]: 0.0043 µM

CC(C)c1nnc2n1C(C)CN(C(=O)c1cc(Cc3n[nH]c(=O)c4ccccc34)ccc1F)C2 (stereo unspecified)
IC50 [3]: 0.0041 µM

Cc1c(Cc2ccc(F)c(C(=O)N3Cc4nnc(-c5ccccn5)n4C(C)C3)c2)n[nH]c(=O)c1C (stereo unspecified)
IC50 [3]: 0.0613 µM

CC1CN(C(=O)c2cc(Cc3n[nH]c(=O)c4ccccc34)ccc2F)Cc2nnc(CN(C)C)n21 (stereo unspecified)
IC50 [2]: 1.43 µM
IC50 [3]: 0.0176 µM
